Like-named read-outs stand apart in the source and are kept apart here.
How the values were obtained:
NMP53^−/− cells = experiment: Colony formation assay on NMP53^−/− cells; assay type: cell-based, murine; details: colony formation assay; for minimal effective concentration: 5 days, read-out: EC (NMP53^−/−); for selectivity for NMP53^−/− cells: NMP53^−/− versus NMCdkn2a^ARF−/− cells
Text: (§1) To evaluate the effect of small molecules equipped with R-spine interacting moieties, the inventors screened a focused library of proprietary p38a MAP-Kinase inhibitors which were equipped with R-spine interacting pharmacophores. To this end, the inventors utilized a screening system as developed in Dauch et al.^2 The screening system is based on colony formation assays of cell lines isolated from Nras-driven, Trp53-deficient murine HCCs, whose development is dependent on MYC (NMP53^−/− cells), as well as Nras-driven, Cdkn2a^ARF-deficient murine HCCs, which develop independently of MYC (NMCdkn2a^ARF−/− cells). Importantly, NMP53^−/− cells are sensitive to AURKA inhibitors, which induce a conformational shift in AURKA, whereas NMCdkn2a^ARF−/− are not sensitive to such compounds.
(§2) For Colony Formation Assays, cells were seeded at a density of 50 000 cells per 6 well and next day treated with a 2-fold dilution series of the indicated compounds or the highest corresponding DMSO concentration as control. After 5 days, the cells were fixed with a 10% formaldehyde solution for 30 min, washed once with water, stained with a 0.5% crystal violet solution for 30 min and washed twice with water. The compounds effective concentration (EC) was determined according to the lowest concentration in the dilution series, that inhibited cell growth substantially. The resulting benzamide containing hit structure 1, with a twofold selectivity towards NMP53^−/− cells (effective concentration on NMP53^−/− cells (EC): 2 μM, EC on Cdkn2a^ARF−/−: 4 μM, FIG. 1), served as the inventors' starting point for further compound development.

NMCdkn2a^ARF−/− cells = experiment: Colony formation assay on NMCdkn2a^ARF−/− cells; assay type: cell-based, murine; details: 5 days, read-out: EC (NMCdkn2a^ARF−/−)
Text: as §1, §2

[1] = Mus musculus, 120 h, lowest concentration of 2-fold dilution series that inhibited cell growth substantially

| Structure (SMILES) | minimal effective concentration (NMP53^−/− cells; Mus musculus, 120 h) [µM] | minimal effective concentration (NMCdkn2a^ARF−/− cells; Mus musculus, 120 h) [µM] | further results |
| --- | --- | --- | --- |
| CC(=O)Nc1cc(NCc2ccc(-c3cn[nH]c3)cc2)ccc1F [Compound 2b, N-(5-((4-(1H-pyrazole-4-yl)benzyl)amino)-2-fluorophenyl)acetamide] | > 4 | > 4 | minimal effective concentration (NMCdkn2a^ARF−/− cells; [1]): > 4 µM |
| CCn1cc(-c2ccc(CNc3ccc(F)c(NC(=O)CCc4ccco4)c3)cc2)cn1 [Compound 3b, N-(5-((4-(1-ethyl-1H-pyrazole-4-yl)benzyl)amino)-2-fluorophenyl)-3-(furan-2-yl)propanamide] | 0.125 | 0.25 | minimal effective concentration (NMP53^−/− cells; [1]): 0.125 µM; selectivity for NMP53^−/− cells (NMP53^−/− cells): loss of selectivity; minimal effective concentration (NMCdkn2a^ARF−/− cells; [1]): 0.25 µM |
| CCCn1cc(-c2ccc(CNc3ccc(F)c(NC(=O)CCc4ccco4)c3)cc2)cn1 [Compound 3c, N-(2-fluoro-5-((4-(1-propyl-1H-pyrazole-4-yl)benzyl)amino)phenyl)-3-(furan-2-yl)propanamide] | 4 | > 4 | minimal effective concentration (NMP53^−/− cells; [1]): 4 µM; selectivity for NMP53^−/− cells (NMP53^−/− cells): loss of selectivity; minimal effective concentration (NMCdkn2a^ARF−/− cells; [1]): > 4 µM |
| CC(C)n1cc(-c2ccc(CNc3ccc(F)c(NC(=O)CCc4ccco4)c3)cc2)cn1 [Compound 3d, N-(2-fluoro-5-((4-(1-isopropyl-1H-pyrazole-4-yl)benzyl)amino)phenyl)-3-(furan-2-yl)propanamide] | 4 | 4 | minimal effective concentration (NMP53^−/− cells; [1]): 4 µM; selectivity for NMP53^−/− cells (NMP53^−/− cells): loss of selectivity; minimal effective concentration (NMCdkn2a^ARF−/− cells; [1]): 4 µM |
| CN(C(=O)CCc1ccco1)c1cc(NCc2ccc(-c3cnn(C)c3)cc2)ccc1F [Compound 4, N-(2-fluoro-5-((4-(1-methyl-1H-pyrazole-4-yl)benzyl)amino)phenyl)-3-(furan-2-yl)-N-methylpropanamide] | > 4 | > 4 | minimal effective concentration (NMP53^−/− cells; [1]): > 4 µM; minimal effective concentration (NMP53^−/− cells; lowest concentration of 2-fold dilution series that inhibited cell growth substantially): >4 µM; minimal effective concentration (NMCdkn2a^ARF−/− cells; [1]): > 4 µM |
| O=C(CC1CCCCC1)Nc1cc(NCc2cc(-c3cc4cccnc4[nH]3)ccn2)ccc1F [Compound 8oj, N-(5-(((4-(1H-Pyrrolo[2,3-b]pyridin-2-yl)pyridin-2-yl)methyl)amino)-2-fluorophenyl)-2-cyclohexylacetamide] | 0.5 | 1 | – |
| O=C(CC1CC1)Nc1cc(NCc2cc(-c3cc4cccnc4[nH]3)ccn2)ccc1F [Compound 8ok, N-(5-(((4-(1H-Pyrrolo[2,3-b]pyridin-2-yl)pyridin-2-yl)methyl)amino)-2-fluorophenyl)-2-cyclopropylacetamide] | 0.5 | 1 | – |
| Cc1ccc(CCC(=O)Nc2cc(NCc3ccc(-c4cn[nH]c4)cc3)ccc2F)o1 [Compound 106h, N-(5-((4-(1H-Pyrazol-4-yl)benzyl)amino)-2-fluorophenyl)-3-(5-methylfuran-2-yl)propanamide] | 0.25 | 2 | – |
| O=C(CCc1ccc[nH]1)Nc1cc(NCc2ccc(-c3cn[nH]c3)cc2)ccc1F [Compound 106q, N-(5-((4-(1H-Pyrazol-4-yl)benzyl)amino)-2-fluorophenyl)-3-(1H-pyrrol-2-yl)propanamide] | 1 to 2 | > 4 | – |
| Cn1cc(-c2ccc(CNc3ccc(F)c(NC(=O)CCC4CCCO4)c3)cc2)cn1 (stereo not drawn) [Compound 107g, N-(2-fluoro-5-((4-(1-methyl-1H-pyrazol-4-yl)benzyl)amino)phenyl)-3-(tetrahydrofuran-2-yl)propanamide] | 0.125 | 2 | – |
| Cc1ccc(CCC(=O)Nc2cc(NCc3ccc(-c4cnn(C)c4)cc3)ccc2F)o1 [Compound 107h, N-(2-fluoro-5-((4-(1-methyl-1H-pyrazol-4-yl)benzyl)amino)phenyl)-3-(5-methylfuran-2-yl)propanamide] | 0.125 | 1 | – |
| Cn1cc(-c2ccc(CNc3ccc(F)c(NC(=O)Cc4ccco4)c3)cc2)cn1 [Compound 107m, N-(2-fluoro-5-((4-(1-methyl-1H-pyrazol-4-yl)benzyl)amino)phenyl)-2-(furan-2-yl)acetamide] | 0.125 | 16 | – |
| Cn1cc(-c2ccc(CNc3ccc(F)c(NC(=O)CCc4ccc[nH]4)c3)cc2)cn1 [Compound 107q, N-(2-fluoro-5-((4-(1-methyl-1H-pyrazol-4-yl)benzyl)amino)phenyl)-3-(1H-pyrrol-2-yl)propanamide] | 0.5 to 1 | 4 | – |
| O=C(CCc1ccco1)Nc1cc(NCc2ccc(-c3cn[nH]c3)cc2)ccc1Cl [Compound 113a, N-(5-((4-(1H-Pyrazol-4-yl)benzyl)amino)-2-chlorphenyl)-3-(furan-2-yl)propanamide] | – | – | minimal effective concentration (NMP53^−/− cells): 0.5 µM; minimal effective concentration (NMCdkn2a^ARF−/− cells): >1 µM |
| Cn1cc(-c2ccc(COc3ccc(F)c(NC(=O)CCc4ccccc4)c3)cc2)cn1 [Compound 124, N-(2-fluoro-5-((4-(1-methyl-1H-pyrazol-4-yl)benzyl)oxy)phenyl)-3-phenylpropanamide] | 0.25 | > 1 | – |
| COc1cc(CNc2ccc(F)c(NC(=O)CCc3ccco3)c2)ccc1-c1cn[nH]c1 [Compound 127b, N-(2-fluoro-5-((3-methoxy-4-(1H-pyrazol-4-yl)benzyl)amino)phenyl)-3-(furan-2-yl)propanamide] | 0.25 | > 1 | – |
| O=C(CCc1ccco1)Nc1cc(NCc2ccc(-c3cn[nH]c3)cc2F)ccc1F [Compound 127c, N-(2-fluoro-5-((2-fluoro-4-(1H-pyrazol-4-yl)benzyl)amino)phenyl)-3-(furan-2-yl)propanamide] | 0.125 | 0.5 to 1 | – |
| COc1cc(-c2cn[nH]c2)ccc1CNc1ccc(F)c(NC(=O)CCc2ccco2)c1 [Compound 127d, N-(2-fluoro-5-((2-methoxy-4-(1H-pyrazol-4-yl)benzyl)amino)phenyl)-3-(furan-2-yl)propanamide] | 0.25 | 2 | – |
| O=C(CCc1ccco1)Nc1cc(NCc2ccc(-c3cn[nH]c3)nc2)ccc1F [Compound 127e, N-(5-(((6-(1H-Pyrazol-4-yl)pyridin-3-yl)methyl)amino)-2-fluorophenyl)-3-(furan-2-yl)-propanamide] | 0.5 | > 2 | – |
| Cn1cc(-c2ccc(CNc3ccc(F)c(NC(=O)CCc4ccco4)c3)cc2F)cn1 [Compound 128a, N-(2-fluoro-5-((3-fluoro-4-(1-methyl-1H-pyrazol-4-yl)benzyl)amino)phenyl)-3-(furan-2-yl)propanamide] | 0.032 | 0.125 to 0.25 | – |
| COc1cc(CNc2ccc(F)c(NC(=O)CCc3ccco3)c2)ccc1-c1cnn(C)c1 [Compound 128b, N-(2-fluoro-5-((3-methoxy-4-(1-methyl-1H-pyrazol-4-yl)benzyl)amino)phenyl)-3-(furan-2-yl)propanamide] | 0.062 | > 0.5 | – |
| Cn1cc(-c2ccc(CNc3ccc(F)c(NC(=O)CCc4ccco4)c3)c(F)c2)cn1 [Compound 128c, N-(2-fluoro-5-((2-fluoro-4-(1-methyl-1H-pyrazol-4-yl)benzyl)amino)phenyl)-3-(furan-2-yl)propanamide] | 0.125 | 0.5 to 1 | – |
| COc1cc(-c2cnn(C)c2)ccc1CNc1ccc(F)c(NC(=O)CCc2ccco2)c1 [Compound 128d, N-(2-fluoro-5-((2-methoxy-4-(1-methyl-1H-pyrazol-4-yl)benzyl)amino)phenyl)-3-(furan-2-yl)propanamide] | 0.031 | > 0.5 | – |
| Cn1cc(-c2ccc(CNc3ccc(F)c(NC(=O)CCc4ccco4)c3)cn2)cn1 [Compound 128e, N-(2-fluoro-5-(((6-(1-methyl-1H-pyrazol-4-yl)pyridin-3-yl)methyl)amino)phenyl)-3-(furan-2-yl)propanamide] | 0.25 | > 2 | – |
| Cn1cc(-c2ccc(CNc3ccc(F)c(NC(=O)CCc4ccccc4)c3)nc2)cn1 [Compound 130, N-(2-fluoro-5-(((5-(1-methyl-1H-pyrazol-4-yl)pyridin-2-yl)methyl)amino)phenyl)-3-phenylpropanamide] | 0.5 | > 1 | – |
